# Reference: patent publication US7049321B2, “Methods and pharmaceutical compositions for treatment of central and peripheral nervous system disorders and compounds useful therefor” (Israel Institute for Biological Research, priority 2002, dated 2006)
# Entries after “also recorded” stand apart in the source; their conditions may differ.
# Columns and labels:
# [1] = test system: ischemic rats; test: Working memory (MWM) in ischemic rats; format: in vivo, Sprague Dawley rats; details: 0.5 mg/kg, po, chronic
# Protocol: Transient ischemia in rats was induced by a modification of the ischemia model (Voll et et al, Stroke, 20: 1700–1706, 1989). This was done by a bilateral carotid artery occlusion in Sprague Dawley rats: (42 male, 3 months old, weighing 270–340 g) combined with reduction in blood pressure induced by sodium nitropruside. Ischemia was induced in 21 rats whereas the other 21 rats served as sham controls. Under pentobarbital anasthesia (30 mg/kg, ip), sodium nitropruside 4.8 mg/kg/hr) was infused through a cannula implanted in the tail vein, for a period of 25 min. Five min after the initiation of the infusion, at the time when mean blood pressure was maintained at 30–60 mmHg (intial levels ˜110 mm Hg) both carotid arteries were clamped for 20 min. Immediately afterwards 1.8 mEq sodium bicarbonate solution was administerd ip in order to minimize systemic acidosis. The sham operated rats were anesthetized as the ischemic rats and were infused with saline. […] In rats subjected to ischemia, a mortality of about 30% was recorded within 24 hr after surgery. […]
# The ratio of escape latency (REL) and the ratio of path length (RPL) were calculated by the ratio of block no 2/block no 1 for each parameter. […] REL and RPL were analyzed by a 3-way ANOVA (2×2×3), with one repeated variable (weeks) and two non-repeated variables (Operation-ischemia/sham-operated and Treatment AF150(S)/DDW).
# [2] = test system: cyclin D1; test: Cyclin D1 expression in rat hippocampal neurons; format: cell-based; details: against Aβ (5 μM)-induced decrease
# Protocol: This study was performed in rat hippocampal primary cell cultures using the methods described by Garrido J L et al. (FASEB J 2002; 16:1982).
# [3] = target: T1, M5 receptor (Homo sapiens, UniProt P08912); test: PI hydrolysis in cells transfected with human M5; format: cell-based
# T1 construct: expressed in transfected cells
# T1 sequence (P08912 whole entry): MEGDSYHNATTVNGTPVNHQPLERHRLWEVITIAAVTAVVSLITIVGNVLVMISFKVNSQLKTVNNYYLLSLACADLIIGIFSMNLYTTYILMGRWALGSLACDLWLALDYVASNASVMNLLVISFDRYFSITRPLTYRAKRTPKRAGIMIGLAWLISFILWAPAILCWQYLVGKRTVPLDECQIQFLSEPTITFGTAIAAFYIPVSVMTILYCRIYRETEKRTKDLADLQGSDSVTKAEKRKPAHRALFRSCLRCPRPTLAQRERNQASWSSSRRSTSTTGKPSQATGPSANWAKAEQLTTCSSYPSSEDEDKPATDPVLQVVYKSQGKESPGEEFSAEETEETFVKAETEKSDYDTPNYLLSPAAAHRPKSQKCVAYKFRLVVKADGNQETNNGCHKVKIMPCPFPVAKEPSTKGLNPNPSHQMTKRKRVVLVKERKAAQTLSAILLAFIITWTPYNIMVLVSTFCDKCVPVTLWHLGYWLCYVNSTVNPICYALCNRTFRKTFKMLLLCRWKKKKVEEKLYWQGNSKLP
smiles,measurement,setting,value
"CC1=NCC2(CCN(C)CC2)S1 [AF150(S), 2,8-Dimethyl-1-thia-3,8-diaza-spiro[4.5]dec-2-ene]",Working memory performance (REL and RPL),[1],significantly improved working memory performance
"CC[C@@H]1SC2(CCN(C)CC2)NC1=O [AF267B, (S)-2-ethyl-8-methyl-1-thia-4,8-diaza-spiro[4.5]decan-3-one]","cyclin D1, increase vs. control",[2],50%
"CC[C@@H]1SC2(CCNCC2)NC1=O [AF292, (S)-2-Ethyl-1-thia-4,8-diaza-spiro[4.5]decan-3-one]","PI turnover, M5, agonist activity",[3],"No activity; also recorded: PI, AA: M5 mAChR - no effect as agonist"
